{
  "source": "patent US20110306606A1",
  "about": "“NOVEL 2,6-SUBSTITUTED-3-NITROPYRIDINE DERIVATIVE, METHOD FOR PREPARING SAME, AND PHARMACEUTICAL COMPOSITION INCLUDING SAME” (priority 2008, published 2011)",
  "data": [
    {"test_system": "Osteoblasts (Calvarial cells)", "experiment": "Cytotoxicity test (MTT)", "conditions": "1 μM compound, 72 hours, in comparison with vehicle control", "units": {"Cell viability (%) Calvarial cell": "%"}, "description": "For the preparation of osteoblasts (Calvarial cells), the calvaria were aseptically dissected from 1 to 2-day-old neonatal ICR mice and subjected to continuous reaction with a 0.2% collagenase solution to separate osteoblasts. The cell-suspended supernatant was centrifuged to recover osteoblasts which were grown to full confluence in an α-MEM supplemented with 10% FBS and then diluted to a desired cell density for use in the experiment.\nCytotoxicity of the compounds of the present invention was evaluated by carrying out the experiment described below.\nThe vehicle control group was established to contain 0.2% DMSO. 100 μL/well of the diluted drugs were dispensed into 96-well plates to which osteoblasts (calvarial cells) prepared in Experimental Example 1 were then added at a density of 1.0×10^4 cells/100 μL/well. Here, the final compound concentration in the cell culture was 1 μM, and the vehicle control group contained 0.1% DMSO. The cells were cultured in a 5% CO2 inhibitor at 37° for 72 hours. 25 μL of 3-(4,5-dimethyl-2-thiazolyl)-2,5-diphenyl-2H-tetrazolium bromide (MTT) dissolved in PBS (2 mg/mL) was added to each cell culture 4 hours before the end of culture. After completion of the reaction, the plates were centrifuged, the media were discarded, and 100 μL of formazan was added and dissolved in dimethyl sulfoxide (DMSO). Finally, the absorbance of the developed plates was measured at 540 nm. The cell viability was expressed as % concentration in comparison with the vehicle control group.", "values": [
      {"smiles": "CC(C)CNc1ccc([N+](=O)[O-])c(Nc2ccc(N3CCCC(C(N)=O)C3)c(F)c2)n1", "note": "(stereo not shown) [Compound 303, 2-{[3-fluoro-4-(3-carbamoylpiperidino)]phenylamino}-6-(isobutylamino)-3-nitropyridine]", "Cell viability (%) Calvarial cell": 102},
      {"smiles": "CN1CCN(c2ccc([N+](=O)[O-])c(Nc3ccc(N4CCCC(C(N)=O)C4)c(F)c3)n2)CC1", "note": "(stereo not shown) [Compound 307, 2-{[3-fluoro-4-(3-carbamoylpiperidino)]phenylamino}-6-(4-methylpiperazin-1-yl)-3-nitropyridine]", "Cell viability (%) Calvarial cell": 131},
      {"smiles": "CC1=NCCN1c1ccc([N+](=O)[O-])c(Nc2ccc(N3CCC(O)CC3)c(F)c2)n1", "note": "[Compound 240, 2-{[3-fluoro-4-(4-hydroxypiperidino)]phenylamino}-6-[(2-methyl-4,5-dihydro)imidazol-1-yl]-3-nitropyridine]", "Cell viability (%) Calvarial cell": 97},
      {"smiles": "CC(C)c1nccn1-c1ccc([N+](=O)[O-])c(Nc2ccc(N3CCNCC3)c(F)c2)n1", "note": "[Compound 219, 2-[(3-fluoro-4-piperazino)phenylamino]-6-[(2-isopropyl)imidazol-1-yl]-3-nitropyridine]", "Cell viability (%) Calvarial cell": 89},
      {"smiles": "CCN(CC)c1ccc(Nc2nc(NCCCN3CCOCC3)ccc2[N+](=O)[O-])cc1F", "note": "[Compound 190, 2-[(3-fluoro-4-diethylamino)phenylamino]-6-[(3-morpholin-1-yl)propylamino]-3-nitropyridine]", "Cell viability (%) Calvarial cell": 123},
      {"smiles": "CN(CC1OCCO1)c1ccc([N+](=O)[O-])c(Nc2ccc(N3CCOCC3)cc2)n1", "note": "[Compound 111, 2-(4-morpholinophenylamino)-6-[(N-[1,3]-dioxolan-2-ylmethyl)methylamino]-3-nitropyridine]", "Cell viability (%) Calvarial cell": 95},
      {"smiles": "CNc1ccc([N+](=O)[O-])c(Nc2ccc(N3CCCC(CO)C3)c(F)c2)n1", "note": "(stereo not shown) [Compound 275, 2-{[3-fluoro-4-(3-hydroxymethylpiperidino)]phenylamino}-6-(methylamino)-3-nitropyridine]", "Cell viability (%) Calvarial cell": 121},
      {"smiles": "CC(C)(C)Nc1ccc([N+](=O)[O-])c(Nc2ccc(N3CCCC(C(N)=O)C3)c(F)c2)n1", "note": "(stereo not shown) [Compound 304, 2-{[3-fluoro-4-(3-carbamoylpiperidino)]phenylamino}-6-(t-butylamino)-3-nitropyridine]", "Cell viability (%) Calvarial cell": 103},
      {"smiles": "CN1CCN(c2ccc([N+](=O)[O-])c(Nc3ccc(-c4csc(C5CCCCC5)n4)cc3)n2)CC1", "note": "[Compound 159]", "Cell viability (%) Calvarial cell": 100},
      {"smiles": "NC(=O)C1CCCN(c2ccc(Nc3nc(NCCCN4CCOCC4)ccc3[N+](=O)[O-])cc2F)C1", "note": "(stereo not shown) [Compound 314, 2-{[3-fluoro-4-(3-carbamoylpiperidino)]phenylamino}-6-[(3-morpholin-1-yl)propylamino]-3-nitropyridine]", "Cell viability (%) Calvarial cell": 103},
      {"smiles": "CNc1ccc([N+](=O)[O-])c(Nc2ccc(N3CCC(C(N)=O)CC3)c(F)c2)n1", "note": "[Compound 289, 2-{[3-fluoro-4-(4-carbamoylpiperidino)]phenylamino}-6-(methylamino)-3-nitropyridine]", "Cell viability (%) Calvarial cell": 115},
      {"smiles": "CC1=NCCN1c1ccc([N+](=O)[O-])c(Nc2ccc(N3CCCC(CO)C3)c(F)c2)n1", "note": "(stereo not shown) [Compound 280, 2-{[3-fluoro-4-(3-hydroxymethylpiperidino)]phenylamino}-6-[(2-methyl-4,5-dihydro)imidazol-1-yl]-3-nitropyridine]", "Cell viability (%) Calvarial cell": 103},
      {"smiles": "CC1CCCCN1c1ccc(Nc2nc(N3CCC(O)CC3)ccc2[N+](=O)[O-])cc1F", "note": "(stereo not shown) [Compound 265, 2-{[3-fluoro-4-(2-methylpiperidino)]phenylamino}-6-(4-hydroxypiperidino)-3-nitropyridine]", "Cell viability (%) Calvarial cell": 104},
      {"smiles": "CCN(CC)c1ccc(Nc2nc(NCc3cccnc3)ccc2[N+](=O)[O-])cc1F", "note": "[Compound 185, 2-[(3-fluoro-4-diethylamino)phenylamino]-6-[(3-pyridyl)methylamino]-3-nitropyridine]", "Cell viability (%) Calvarial cell": 111},
      {"smiles": "CNc1ccc([N+](=O)[O-])c(Nc2ccc(N3CCCCC3C)c(F)c2)n1", "note": "(stereo not shown) [Compound 261, 2-{[3-fluoro-4-(2-methylpiperidino)]phenylamino}-6-(methylamino)-3-nitropyridine]", "Cell viability (%) Calvarial cell": 114},
      {"smiles": "CC(C)(C)Nc1ccc([N+](=O)[O-])c(Nc2ccc(N3CCC(C(N)=O)CC3)c(F)c2)n1", "note": "[Compound 292, 2-{[3-fluoro-4-(4-carbamoylpiperidino)]phenylamino}-6-(t-butylamino)-3-nitropyridine]", "Cell viability (%) Calvarial cell": 102},
      {"smiles": "CC(C)Nc1ccc([N+](=O)[O-])c(Nc2ccc(N3CCC(N)CC3)c(F)c2)n1", "note": "[Compound 249, 2-{[3-fluoro-4-(4-aminopiperidino)]phenylamino}-6-(isopropylamino)-3-nitropyridine]", "Cell viability (%) Calvarial cell": 101},
      {"smiles": "CCN(CC)c1ccc(Nc2nc(N3CCN(C)CC3)ccc2[N+](=O)[O-])cc1F", "note": "[Compound 183, 2-[(3-fluoro-4-diethylamino)phenylamino]-6-(4-methylpiperazin-1-yl)-3-nitropyridine]", "Cell viability (%) Calvarial cell": 113},
      {"smiles": "CN(CC1OCCO1)c1ccc([N+](=O)[O-])c(Nc2ccc(C(C)(C)C)cc2)n1", "note": "[Compound 33, 2-[4-(t-butyl)phenylamino]-6-[(N-[1,3]-dioxolan-2-ylmethyl)methylamino]-3-nitropyridine]", "Cell viability (%) Calvarial cell": 93},
      {"smiles": "CCN(CCO)c1ccc([N+](=O)[O-])c(Nc2ccc(-c3csc(C4CCCCC4)n3)cc2)n1", "note": "[Compound 156, 2-[4-(2-cyclohexylthiazol-4-yl)phenylamino]-6-[(N-ethyl-2-hydroxyethyl)amino]-3-nitropyridine]", "Cell viability (%) Calvarial cell": 108},
      {"smiles": "O=C(O)C1CCN(c2ccc(Nc3nc(NCCCN4CCOCC4)ccc3[N+](=O)[O-])cc2F)CC1", "note": "[Compound 325, 2-{[3-fluoro-4-(4-carboxylicpiperidino)]phenylamino}-6-[(3-morpholin-1-yl)propylamino]-3-nitropyridine]", "Cell viability (%) Calvarial cell": 106},
      {"smiles": "CC(C)Nc1ccc([N+](=O)[O-])c(Nc2ccc(N3CCCC(C(N)=O)C3)c(F)c2)n1", "note": "(stereo not shown) [Compound 302, 2-{[3-fluoro-4-(3-carbamoylpiperidino)]phenylamino}-6-(isopropylamino)-3-nitropyridine]", "Cell viability (%) Calvarial cell": 103},
      {"smiles": "CN1CCN(c2ccc([N+](=O)[O-])c(Nc3ccc(N4CCC(C(=O)O)CC4)c(F)c3)n2)CC1", "note": "[Compound 320, 2-{[3-fluoro-4-(4-carboxylicpiperidino)]phenylamino}-6-(4-methylpiperazin-1-yl)-3-nitropyridine]", "Cell viability (%) Calvarial cell": 101},
      {"smiles": "O=C(O)C1CCN(c2ccc(Nc3nc(N4CCC(O)CC4)ccc3[N+](=O)[O-])cc2F)CC1", "note": "[Compound 319, 2-{[3-fluoro-4-(4-carboxylicpiperidino)]phenylamino}-6-(4-hydroxypiperidino)-3-nitropyridine]", "Cell viability (%) Calvarial cell": 112},
      {"smiles": "NC(=O)C1CCN(c2ccc(Nc3nc(N4CCC(N)CC4)ccc3[N+](=O)[O-])cc2F)CC1", "note": "[Compound 297, 2-{[3-fluoro-4-(4-carbamoylpiperidino)]phenylamino}-6-(4-aminopiperidino)-3-nitropyridine]", "Cell viability (%) Calvarial cell": 107},
      {"smiles": "CCN(CC)c1ccc(Nc2nc(NCCN3CCOCC3)ccc2[N+](=O)[O-])cc1F", "note": "[Compound 188, 2-[(3-fluoro-4-diethylamino)phenylamino]-6-[2-(morpholin-1-yl)ethylamino]-3-nitropyridine]", "Cell viability (%) Calvarial cell": 111},
      {"smiles": "CC(C)c1nccn1-c1ccc([N+](=O)[O-])c(Nc2ccc(N3CCSCC3)c(F)c2)n1", "note": "[Compound 208, 2-[(3-fluoro-4-thiomorpholino)phenylamino]-6-[(2-isopropyl)imidazol-1-yl]-3-nitropyridine]", "Cell viability (%) Calvarial cell": 101},
      {"smiles": "NC(=O)C1CCN(c2ccc(Nc3nc(N4CCNCC4)ccc3[N+](=O)[O-])cc2F)CC1", "note": "[Compound 294, 2-{[3-fluoro-4-(4-carbamoylpiperidino)]phenylamino}-6-(piperazin-1-yl)-3-nitropyridine]", "Cell viability (%) Calvarial cell": 95},
      {"smiles": "Nc1ccc(Nc2nc(NCCN3CCOCC3)ccc2[N+](=O)[O-])cc1", "note": "[Compound 68, 2-[4-(amino)phenylamino]-6-[2-(morpholin-1-yl)ethylamino]-3-nitropyridine]", "Cell viability (%) Calvarial cell": 103},
      {"smiles": "NC(=O)C1CCN(c2ccc(Nc3nc(NCc4ccncc4)ccc3[N+](=O)[O-])cc2F)CC1", "note": "[Compound 298, 2-{[3-fluoro-4-(4-carbamoylpiperidino)]phenylamino}-6-[(4-pyridyl)methylamino]-3-nitropyridine]", "Cell viability (%) Calvarial cell": 108},
      {"smiles": "CC1=NCCN1c1ccc([N+](=O)[O-])c(Nc2ccc(C#N)cc2)n1", "note": "[Compound 48, 2-(4-cyanophenylamino)-6-[(2-methyl-4,5-dihydro)imidazol-1-yl]-3-nitropyridine]", "Cell viability (%) Calvarial cell": 103},
      {"smiles": "O=[N+]([O-])c1ccc(NCc2ccncc2)nc1Nc1ccc(N2CCCC(CO)C2)c(F)c1", "note": "(stereo not shown) [Compound 286, 2-{[3-fluoro-4-(3-hydroxymethylpiperidino)]phenylamino}-6-[(4-pyridyl)methylamino]-3-nitropyridine]", "Cell viability (%) Calvarial cell": 123},
      {"smiles": "O=[N+]([O-])c1ccc(N2CCNCC2)nc1Nc1ccc(N2CCC(O)CC2)c(F)c1", "note": "[Compound 245, 2-{[3-fluoro-4-(4-hydroxypiperidino)]phenylamino}-6-(piperazin-1-yl)-3-nitropyridine]", "Cell viability (%) Calvarial cell": 101},
      {"smiles": "O=[N+]([O-])c1ccc(N2CCOCC2)nc1Nc1ccc(N2CCC(O)CC2)c(F)c1", "note": "[Compound 247, 2-{[3-fluoro-4-(4-hydroxypiperidino)]phenylamino}-6-morpholino-3-nitropyridine]", "Cell viability (%) Calvarial cell": 94}
    ]}
  ]
}
